In publication PMC10866072, “Design, synthesis, molecular modelling and biological evaluation of novel 6-amino-5-cyano-2-thiopyrimidine derivatives as potent anticancer agents against leukemia and apoptotic inducers” (Journal of Enzyme Inhibition and Medicinal Chemistry, 2024):
Like-named read-outs stand apart in the source and are kept apart here.

Columns and labels:
[1] = system: RPMI-8226; type: cell-based
[2] = system: SK-MEL-5; type: cell-based
[3] = system: Bcl2 protein in leukaemia SR cells; experiment: Western blot; type: cell-based, human
Experimental: (§1) To assess the effect of compound 1c on protein expression of apoptotic and anti-apoptotic proteins levels, western blotting for selected candidate genes were performed[96]^,[97].Briefly, equal amounts (20 µg) of protein samples were mixed and boiled with SDS Loading buffer for 10 min, allowed to cool on ice and then loaded into SDS-polyacrylamide gel and separated by Cleaver electrophoresis unit (Cleaver, UK), transferred onto polyvinylidene fluoride (PVDF) membranes (BioRad) for 30 min using a Semi-dry Electro blotter (Biorad, USA) at 2.5 A and 25 V for 30 min. Additionally, the membrane was blocked by 5% non-fat dry milk solution in TBS-T for two hours at RT, in order to reduce non-specific protein interactions between the membrane and the antibody. Furthermore, the membrane was incubated overnight at 4 °C with primary antibodies, anti B-actin (Sigma ®), anti-Bax, anti-Bcl2, and anti-P53 (Abcam ®). The blots were then washed for three times (10 min each) with TBS-T. Finally, the membrane was incubated with the corresponding horse radish peroxidase (HRP)- linked secondary antibodies (Dako) for another hour at room temperature, followed by washing for three times (10 min each) with TBS-T. Then, the chemiluminescent reagent (ECL) was added according to the kit instructions and signals were detected by a CCD camera-based imager (Chemi Doc imager, Biorad, USA), and the bands intensities were measured by ImageLab (Biorad).

[4] = system: Bax protein in HL60 cells; experiment: Western blot; type: cell-based, human
Experimental: as §1

[5] = system: P53 protein in HL60 cells; experiment: Western blot; type: cell-based, human
Experimental: as §1

[6] = system: Bcl2 protein in HL60 cells; experiment: Western blot; type: cell-based, human
Experimental: as §1

[7] = system: Bax protein in leukaemia SR cells; experiment: Western blot; type: cell-based, human
Experimental: as §1

[8] = system: leukaemia cell lines; experiment: NCI-60 five-dose, subpanel
Text: (§2) Furthermore, the average sensitivity of all cell lines to the compound is termed as the full panel mean graph midpoints (MG-MID). The complete panel mean graph midpoints refers to the average sensitivity of all cell lines to the chemical (MG-MID). A measure of a compound’s selectivity for a given cell line is the ratio created by dividing the full panel mean graph midpoints (MG-MID) concentration by the individual subpanel MG-MID concentrations (obtained as the average sensitivity of all the cell lines in a given subpanel to the test compound).
(§3) Assessment of selectivity of a compound depends on the ratio obtained by dividing the full panel MID ^a by their individual subpanel MID ^b (µM) where MID^a is the average sensitivity of all cell lines towards the test agent (µM).

[9] = system: melanoma cell lines; experiment: NCI-60 five-dose, subpanel
Text: as §2, §3

[10] = system: Breast cancer cell lines; experiment: NCI-60 five-dose, subpanel
Text: A measure of a compound’s selectivity for a given cell line is the ratio created by dividing the full panel mean graph midpoints (MG-MID) concentration by the individual subpanel MG-MID concentrations (obtained as the average sensitivity of all the cell lines in a given subpanel to the test compound).
as §3

[11] = system: NCI-H226; type: cell-based
[12] = Homo sapiens, one dose 10^-5 M, 48 h
[13] = Homo sapiens, read-out: GI50 Subpanel MID^b

Compound N#Cc1c(N)nc(S)nc1-c1ccc(Cl)cc1Cl [Compound 1c, 4-Amino-6–(2,4-dichlorophenyl)-2-mercaptopyrimidine-5-carbonitrile] has a GI50 ([1]; Homo sapiens, five-dose) of 0.6 µM, an LC50 ([1]; Homo sapiens, five-dose) of over 100 µM and a % growth at 10 µM [1, 12] of 9.51%. It also gave a TGI ([1]; five-dose) of 27.50 µM, a GI50 ([2]; Homo sapiens, five-dose) of 5.56 µM and a CC50 ([2]; Homo sapiens, five-dose, read-out: LC50 (the source's name)) of 45 µM. The activity at 10 µM ([2]; Homo sapiens, one dose 10^-5 M, 48 h, read-out: % growth) was 58.1%, the TGI ([2]; five-dose) was 19.50 µM and the “Bcl2 protein expression vs untreated control” value [3] was “significantly inhibited the expression”. For the same compound, the “Bax protein expression vs untreated control” value [4] was “significantly increased the expression”, the “P53 protein expression vs untreated control” value [5] was “increased the expression of P53 protein significantly” and the “Bcl2 protein expression vs untreated control” value [6] was “significantly inhibited the expression”. For the same compound, the “Bax protein expression vs untreated control” value [7] was “significantly increased the expression”, the GI50 [8, 13] was 0.33 µM and the GI50 ([8]; Homo sapiens, read-out: GI50 range, leukaemia cell lines) was 0.08 to 0.7 µM. For the same compound, the CC50 ([8]; Homo sapiens, read-out: LC50, leukaemia) was over 100 µM, the “Selectivity ratio (full panel MID^a / subpanel MID^b, GI50 level)” value ([8]; leukaemia) was 39 and the GI50 [9, 13] was 10.7 µM. For the same compound, the “Selectivity ratio (full panel MID^a / subpanel MID^b, GI50 level)” value ([9]; melanoma) was 1.2, the GI50 [10, 13] was 11.4 µM and the “Selectivity ratio (full panel MID^a / subpanel MID^b, GI50 level)” value ([10]; breast cancer) was 1.13. It also gave a GI50 ([11]; Homo sapiens, five-dose) of 16.5 µM, an LC50 (concentration killing 50% of tumour cells) ([11]; Homo sapiens, five-dose) of 82 µM and a % growth at 10 µM [11, 12] of 64.4%. For the same compound, the TGI ([11]; five-dose) was 36.80 µM.
